From patent US20070185028A1, “Compositions and methods for treatment of protein misfolding and protein aggregation diseases” (priority 2004, published 2007)

Assays:
βL crystallin = assay: Chaperone assay, thermal aggregation of βL crystallin; format: biochemical; settings: 1:10 target protein:peptide; light scattering 340 nm
Experimental: Chaperone Assays. Chaperone assays of the five peptides were performed using previously established methods with minor modifications. Muchowski et al., J Mol Biol 289: 397-411, 1999. A 1:1 monomeric molar ratio of chaperone:target protein was determined to be the optimum ratio and all subsequent chaperone assays of the β3 mutants were performed in triplicate and at a 1:1 monomeric molar ratio of chaperone:target protein in a 96-well ELISA micro-titer plate. […] of the chaperone and βL crystallin were mixed in a total volume of 200 μl buffer (5 mM PBS, pH 7.0). Light scattering at λ=340 nm was measured using a Multiskan MCC/340 plate reader before heating (time=0). After the first reading, the plate was heated at 50° C. and readings were taken at fifteen minute intervals for one hour.
The ability of the peptides to suppress the thermal aggregation of βL crystallin was measured spectrophotometrically as light scattering at λ=340 nm from solutions containing 1:10 monomeric molar ratio of target protein:peptide.

ADH = ADH (Equus caballus, UniProt P00327); assay: Chaperone assay, thermal aggregation of ADH at 50° C.; format: biochemical; settings: 50:1 molar ratio of peptide:ADH, sixty minutes, 340 nm
Experimental: The chaperone activity of the peptides was measured as their ability to protect against the thermal aggregation of three chaperone target proteins βH crystallin, ADH and CS in chaperone assays performed at 50° C. (FIG. 19). A non-interactive αB crystallin sequence 111HGKHEERQDE120 was used as the negative control in the chaperone assays (FIG. 19). Based on near and far UVCD, the three target proteins unfolded in the order: CS>>>ADH>>βH crystallin when they were heated at 50° C. for sixty minutes (FIGS. 15 and 16). The thermal aggregation of βH crystallin, ADH and CS was measured as light scattering at λ=340 nm in the presence and absence of each peptide. The chaperone activity of each peptide was calculated as percent protection in which the aggregation of each target protein in the absence of any peptides was set at 0% protection (FIG. 19). The interactive peptides […] and 131LTITSSLSDGV141 were effective inhibitors of aggregation of all three chaperone target proteins.
A (top left): thermal aggregation of chaperone target proteins βH crystallin, ADH and CS in the absence of peptides was measured as light scattering at λ=340 nm. Each target protein was heated at 50° C. for sixty minutes in the absence or presence of one of the peptides. […] The chaperone activity of each peptide was calculated as percent protection in which the aggregation of each target protein in the absence of any peptides was set at 0% protection. The ability of the 73DRFSVNLDVKHFS85, 131LTITSSLSDGV141 and 111HGKHEERQDE120 to protect against the thermal aggregation of βH crystallin (B: top right), ADH (C: bottom left) and CS (D: bottom right) were tested in vitro (vertical bars). […] A 10:1 molar ratio of peptide:target protein was sufficient in conferring significant protection against the aggregation of CS by 73DRFSVNLDVKHFS85 and 131LTITSSLSDGV141.

[1] = as provided by manufacturer (Mimotopes); cited from earlier work
bovine βH crystallin = assay: αB crystallin protein pin array with βH crystallin; format: binding; settings: unheated βH crystallin, 23° C.; similar maxima pre-heated 45° C.
Excerpt: Synthesis of Pins, binding and detection of peptides binding to ligand proteins. The αB crystallin protein pin array was used to measure the interaction between peptides and chaperone target proteins including bovine βH crystallin, human γD crystallin, equine alcohol dehydrogenase (ADH) and porcine citrate synthase (CS) as described (FIG. 12). Ghosh and Clark, Protein Sci 14: 684-95, 2005.
Refer to the methods section for detailed protocols. The absorbance corresponding to the blue coloration in each well was measured at λ=450 nm and plotted against the amino acid sequence of the corresponding peptide in that well (FIGS. 13 and 14). Wells containing peptides that have strong interactions with target proteins are dark blue and wells containing peptides that have weak or no interaction with target proteins are light blue or clear.
The purity of the target proteins used in the pin array assays, bovine βH crystallin, human γD crystallin, equine alcohol dehydrogenase (ADH) and porcine citrate synthase (CS) were determined to be >90% by SDS-PAGE. In addition, primary antibodies for each target protein were specific to that target protein and consequently contaminating proteins that may bind to the peptides will not be detected. Eighty-four sequential and overlapping peptide fragments corresponding to residues 1-175 of human αB crystallin were synthesized employing a simultaneous peptide synthesis strategy developed by Geysen, called Multipin Peptide Synthesis (Mimotopes, San Diego, Calif.). Geysen, Southeast Asian J Trop Med Public Health 21: 523-33, 1990; Chin et al., J Org Chem 62: 538-539, 1997. Peptides were immobilized on derivatized polyethylene pins arranged in a microtiter ELISA plate format. Each peptide was eight amino acids in length and consecutive peptides were offset by two amino acids. All peptides were bound covalently to the surface of the plastic pins. The first peptide was 1MDIAIHHP8 and the last peptide was 168PAVTAAPK175 for human αB crystallin.
Ghosh and Clark, Protein Sci 14: 684-95, 2005. […] The intensity of the blue color in the wells was measured at 450 nm using an ELISA plate-reader (BioTek, Winooski, Vt.). The intensity of the blue color (plotted on the X-axis) was a measure of the interaction between αB crystallin peptides (plotted on the Y-axis) and target proteins. To measure the effect of temperature on the interactions between interactive peptides and the target proteins, the target proteins were heated in a water-bath at 45° C. for fifteen minutes prior to use. Pin arrays are unable to differentiate between monomers, dimers or oligomers of target proteins that exist in solution. Instead, pin arrays are very sensitive detectors of interactions between individual peptides and the entire population (monomers, dimers or oligomers) of specific target proteins that may exist in solution under specific conditions. Each target protein was assayed two to five times. A single pin array was used for all experiments and no change in interactions was observed after more than thirty repetitions. The last three peptides of the protein pin array, 163REEKPAVT170, 165EKPAVTAA172, 167PAVTAAPK174, correspond to the epitope (163REEKPAVTAAPKK175) recognized by the primary antibody for human αB crystallin. A positive reaction is observed for these three peptides in the absence of human αB crystallin as the ligand due to direct binding of the anti-human αB crystallin antibody to these three peptides. The loss of efficiency for the pin array was measured using this assay. The loss of efficiency for the pin array was determined to be <5% by after more than 30 assays.
Protein pin arrays enabled the identification of interactive sequences necessary for the chaperone activity of human αB crystallin. Interactions between immobilized 8-mer human αB crystallin peptides and unheated and pre-heated βH crystallin, a natural protein constitute of lens cells, were measured as absorbances at λ=450 nm at 23° C. […]

ADH, sequence (P00327 whole entry): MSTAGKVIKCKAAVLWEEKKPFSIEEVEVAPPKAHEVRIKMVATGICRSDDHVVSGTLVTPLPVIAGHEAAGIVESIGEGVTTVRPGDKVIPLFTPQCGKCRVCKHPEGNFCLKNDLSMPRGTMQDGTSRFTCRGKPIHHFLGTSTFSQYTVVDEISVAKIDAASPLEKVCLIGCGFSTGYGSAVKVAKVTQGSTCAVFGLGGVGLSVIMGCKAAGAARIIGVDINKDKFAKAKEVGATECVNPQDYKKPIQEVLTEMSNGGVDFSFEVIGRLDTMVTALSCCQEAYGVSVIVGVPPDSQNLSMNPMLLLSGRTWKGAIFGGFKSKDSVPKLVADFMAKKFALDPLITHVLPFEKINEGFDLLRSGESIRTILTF

Row | Sequence | effect on the thermal aggregation of βL crystallin (ranking) (βL crystallin) | percent protection against thermal aggregation of ADH (ADH) | Hydrophobicity [1] | absorbance at 450 nm, interaction with βH crystallin (bovine βH crystallin)
1 | DRFSVNLDVKHFS | identical and slightly lower than the HG peptide | approximately 30% | – | –
2 | ERTIPITRE | identical and slightly lower than the HG peptide | – | – | –
3 | FSVNLDVK [Peptide 38] | – | – | 0.44 | Maximum absorbances
4 | HGKHEERQDE | strongest effect | No protection | – | –
5 | LTITSSLS [Peptide 66] | – | – | 0.7 | Maximum absorbances
6 | LTITSSLSSDGV | identical and slightly lower than the HG peptide | – | – | –
7 | STSLSPFYLRPPSFLRAP | weakest effect | – | – | –
8 | WIRRPFFP [Peptide 5] | – | – | 0.88 | Maximum absorbances
